Assay results published in a compilation of properties of binary mixtures (doi:10.1021/je300132e).

Test: xn = mol fraction of the nth substance listed
Conditions: 101 kPa

CC[NH+](C)CC.CS(=O)(=O)[O-] + O
viscosity [mPa·s]
Conditions	x2 = 0.372	x2 = 0.449	x2 = 0.507	x2 = 0.624	x2 = 0.707
293.1 K	65.26	49.94	41.92	27.93	–
313.1 K	–	21.55	18.69	13.36	10.09
333.1 K	–	11.37	–	7.34	5.72
353.1 K	8.2	–	6.08	–	3.6

CC(=O)[O-].CC[n+]1ccn(C)c1 + O
viscosity [mPa·s]
Conditions	x2 = 0.347	x2 = 0.517	x2 = 0.578	x2 = 0.627	x2 = 0.705
293.1 K	93.7	–	–	42.8	–
313.1 K	35.2	24.4	21.4	18.2	14
333.1 K	16.9	–	–	9.39	7.36
353.1 K	9.51	7.19	6.46	5.63	4.38
